Data published in patent publication US20230085945A1, “ORTHOGONAL SAFETY SWITCHES TO ELIMINATE GENETICALLY ENGINEERED CELLS” (The Board of Trustees of the Leland Stanford Junior …, priority 2020, published 2023).

Experiments:
[1] = tested on: NANOG mRNA and differentiation marker genes in NANOG^iCasp9-YFP hPSCs and differentiated cell-types; experiment: qPCR of NANOG and marker gene expression after AP20187; assay type: cell-based, human; conditions: for expression of differentiation markers in differentiated cell-types: AP20187 1 nM, 24 hours
Protocol: FIG. 9: Efficacy of the NANOG^iCasp9-YFP safety switch (related to FIG. 3). A) Undifferentiated NANOG^iCasp9-YFP hPSCs were treated with AP20187 at the indicated concentrations for 24 hours, and then the percentage of viable remaining cells was subsequently analyzed using FACS analysis (left) and alamar blue staining (right). For the FACS analysis, the percentage of cells shown represents viable cells (i.e., DAPI-negative cells obtained after DAPI staining) that were then gated for YFP+ (i.e., NANOG^+) cells. For the alamar blue analysis, wild-type hPSCs were used as a negative control. […] AP20187 doses equal to or greater than 100 nM may prevent efficient killing of NANOG^iCasp9-YFP hPSCs by considerably downregulating NANOG. Gene expression is depicted normalized to the reference gene YWHAZ (i.e., YWHAZ=1.0). C) Undifferentiated NANOG^iCasp9-YFP hPSCs were treated with the indicated doses of AP20187 for various lengths of time (6, 12, 24, 48, 72 hours) and then alamar blue assay was performed immediately thereafter to quantify the extent of cell death. […] D) Immunofluorescent imaging of NANOG^iCasp9-YFP hESCs in the undifferentiated state and after differentiation into day 6 sclerotome as marked by TWIST1 expression, both without and with treatment of cells with 1 nM AP20187 for 24 hours. […] The following marker genes were assessed in each respective cell-type: sclerotome (bone) progenitors (TWIST1, SOX9, PAX1, PAX9), liver progenitors (SOX17, HNF4A, AFP, TBX3), and forebrain (neural) progenitors (PAX6, FOXG1, OTX2, SIX3). F) Further validation of NANOG^iCasp9-YFP using a simulated mixed cell culture assay. NANOG^iCasp9-YFP undifferentiated hPSCs and hPSC-derived derived sclerotome cells were mixed at a 3:7 ratio, respectively. Mixed cells were treated with AP20187, and 24 hours post-treatment, FACS analysis was done to assess remaining NANOG^iCasp9-YFP hPSCs in culture.
RNA extraction, reverse transcription and quantitative PCR. Undifferentiated or differentiated hPSCs were lysed in […] of RLT Plus Buffer and RNA was extracted using the RNeasy Plus Mini Kit (Qiagen) according to the manufacturer's protocol. 300 ng of total RNA was reverse transcribed into cDNA for qPCR using the High-Capacity cDNA Reverse Transcription Kit (Applied Biosystems) according to the manufacturer's protocol. qPCR was performed in 384-well format as previously described (Loh et al., 2016) on a QuantStudio 5 qPCR machine (Thermo Fisher). Expression of all genes was first normalized to the levels of the reference gene YWHAZ, and then plotted relative to the levels of YWHAZ (i.e., 1.0=equivalent to YWHAZ). The following forward and reverse primer sequences were used to detect the expression of the respective genes: […]

[2] = tested on: ACTB^OiCasp9-mPlum;NANOG^iCasp9-YFP hPSCs and differentiated liver, bone and neural progenitors; experiment: Killing of ACTB^OiCasp9-mPlum;NANOG^iCasp9-YFP hPSCs and differentiated derivatives by AP21 or AP20 (alamar blue); assay type: cell-based, human; conditions: dual-transgenic line; 1 nM, 24 hours
Protocol: FIG. 6: Rationale, design and implementation of the ACTB^OiCasP9-mPlum safety switch. A) Intended application of the dual ACTB^OiCasp9-mPlum;NANOG^iCasp9-YFP safeguard. B) Cas9 RNP/AAV6-based knock-in strategy for ACTB^iCasp9-mPlum targeting, which was performed in the NANOG^iCasp9-YFP hESC line. C) 5×10^5 ACTB^OiCasp9-mPlum; NANOG^iCasp9-YFP hESCs were treated with control media or 1-1000 nM AP21967 for 24 hours. Cell viability was analyzed using alamar blue. D) ACTB^OiCasp9-mPlum;NANOG^iCasp9-YFP and ACTB^TK-mPlum; NANOG^iCasp9-YFP hESCs (negative control), in addition to their respective differentiated derivatives, were treated for 24 hours with 1 nM of AP21967. E) 5×10^5 ACTB^OiCasp9-mPlum; NANOG^iCasp9-YFP hESCs, and their respective differentiated derivatives, were treated with control media, 1 nM of AP21967 or and 1 nM of AP20187 for 24 hours. Surviving cells were analyzed by alamar blue. F) 10^6 ACTB^OiCasp9-mPlum;NANOG^iCasp9-YFP hESCs engineered to express CAG-AkaLuciferase were treated with control media or 1 nM AP20187 for 24 hours, and then subcutaneously transplanted into the right and left dorsal flanks of NOD-SCID Il2rg^−/− mice (10^6 cells per flank). 4 weeks post-transplant, teratomas formed and AP21967 was intraperitoneally administered once at 10 mg/kg. […] Total flux (photons/sec) was measured for each animal and was averaged.

Structure (SMILES): CC[C@H](C(=O)N1CCCC[C@H]1C(=O)O[C@H](CCc1ccc(OC)c(OC)c1)c1cccc(OCC(=O)NCC(CNC(=O)COc2cccc([C@@H](CCc3ccc(OC)c(OC)c3)OC(=O)[C@@H]3CCCCN3C(=O)[C@@H](CC)c3cc(OC)c(OC)c(OC)c3)c2)CN(C)C)c1)c1cc(OC)c(OC)c(OC)c1 [AP20]
- expression of differentiation markers in differentiated cell-types [1]: not substantially effected
- expression of differentiation markers in differentiated cell-types ([1]; listed as AP20187): did not substantially impact marker gene expression
- doses that may prevent efficient killing by considerably downregulating NANOG ([1]; NANOG^iCasp9-YFP hPSCs): ≥ 100 nM
- NANOG mRNA expression in undifferentiated hPSCs ([1]; increasing doses of AP20187): downregulated NANOG mRNA expression
- killing of undifferentiated and differentiated cells [2]: selectively kill undifferentiated hPSCs
